Literature values, collected in patent US11304898B2, “Method of treating carcinoma” (SUN PHARMA ADVANCED RESEARCH COMPANY LTD, priority 2015, dated 2022).

Legend:
[1] = test system: bile tract cancer; conditions: EORTC study
[2] = test system: bile tract cancer; conditions: Phase II studies, bile tract cancer patients

Compound	objective response rate [1] [%]	achieved response rate [2]
CO[C@@]12[C@H](COC(N)=O)C3=C(C(=O)C(C)=C(N)C3=O)N1C[C@@H]1N[C@@H]12 [Mit-C, mitomycin-C]	10	–
O=c1[nH]cc(F)c(=O)[nH]1 [Example 5-FU, 5-Fluorouracil]	–	less than 20%
